Experimental data reported in ChEMBL document CHEMBL4507290 (2021).

How the values were obtained:
[1] = target: Transient receptor potential cation channel subfamily M member 6 (Homo sapiens) (UniProt Q9BX84); details: Compound concentration 1000.0 nM
[2] = target: Casein kinase I isoform gamma-3 (Homo sapiens) (UniProt Q9Y6M4); details: Compound concentration 1000.0 nM
[3] = target: ALK tyrosine kinase receptor (Homo sapiens) (UniProt Q9UM73); details: Compound concentration 1000.0 nM
[4] = target: Tyrosine-protein kinase receptor UFO (Homo sapiens) (UniProt P30530); details: Compound concentration 1000.0 nM
[5] = test system: Receptor-type tyrosine-protein kinase FLT3 (Homo sapiens), P36888 [D835V]; details: Compound concentration 1000.0 nM
[6] = target: D(3) dopamine receptor (Homo sapiens) (UniProt P35462); details: Compound concentration 10.0 uM
[7] = target: Serine/threonine-protein kinase PLK4 (Homo sapiens) (UniProt O00444); details: Compound concentration 1000.0 nM
[8] = target: Ephrin type-A receptor 1 (Homo sapiens) (UniProt P21709); details: Compound concentration 1000.0 nM
[9] = target: Phosphatidylinositol 4,5-bisphosphate 3-kinase catalytic subunit alpha isoform (Homo sapiens) (UniProt P42336); details: Compound concentration 1000.0 nM
[10] = target: TGF-beta receptor type-1 (Homo sapiens) (UniProt P36897); details: Compound concentration 1000.0 nM
[11] = target: SRSF protein kinase 2 (Homo sapiens) (UniProt P78362); details: Compound concentration 1000.0 nM
Chain of SRSF protein kinase 2 (Homo sapiens) (P78362 whole entry, looked up): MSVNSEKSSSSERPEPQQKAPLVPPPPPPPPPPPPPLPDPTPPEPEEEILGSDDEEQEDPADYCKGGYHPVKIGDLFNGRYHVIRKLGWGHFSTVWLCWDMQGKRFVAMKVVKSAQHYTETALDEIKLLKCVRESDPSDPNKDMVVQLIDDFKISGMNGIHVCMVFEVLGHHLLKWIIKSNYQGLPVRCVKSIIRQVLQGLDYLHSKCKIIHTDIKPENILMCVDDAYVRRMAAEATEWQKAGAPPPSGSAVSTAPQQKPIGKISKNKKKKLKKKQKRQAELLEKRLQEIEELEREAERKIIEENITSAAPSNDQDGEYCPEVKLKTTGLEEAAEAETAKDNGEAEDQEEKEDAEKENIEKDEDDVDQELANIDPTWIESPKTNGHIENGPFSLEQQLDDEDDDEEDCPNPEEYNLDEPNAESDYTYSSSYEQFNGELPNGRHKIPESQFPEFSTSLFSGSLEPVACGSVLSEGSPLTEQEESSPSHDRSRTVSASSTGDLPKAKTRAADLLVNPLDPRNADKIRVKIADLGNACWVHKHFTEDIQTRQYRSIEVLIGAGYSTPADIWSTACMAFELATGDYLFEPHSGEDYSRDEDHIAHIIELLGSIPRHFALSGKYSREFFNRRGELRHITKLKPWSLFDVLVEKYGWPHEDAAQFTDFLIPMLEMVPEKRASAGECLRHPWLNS

[12] = target: Casein kinase II subunit alpha' (Homo sapiens) (UniProt P19784); details: Compound concentration 1000.0 nM
[13] = target: Proto-oncogene tyrosine-protein kinase ROS (Homo sapiens) (UniProt P08922); details: Compound concentration 1000.0 nM
[14] = target: Beta-1 adrenergic receptor (Homo sapiens) (UniProt P08588); details: Compound concentration 10.0 uM
[15] = target: Serine/threonine-protein kinase 33 (Homo sapiens) (UniProt Q9BYT3); details: Compound concentration 1000.0 nM
Chain of Serine/threonine-protein kinase 33 (Homo sapiens) (Q9BYT3 whole entry, looked up): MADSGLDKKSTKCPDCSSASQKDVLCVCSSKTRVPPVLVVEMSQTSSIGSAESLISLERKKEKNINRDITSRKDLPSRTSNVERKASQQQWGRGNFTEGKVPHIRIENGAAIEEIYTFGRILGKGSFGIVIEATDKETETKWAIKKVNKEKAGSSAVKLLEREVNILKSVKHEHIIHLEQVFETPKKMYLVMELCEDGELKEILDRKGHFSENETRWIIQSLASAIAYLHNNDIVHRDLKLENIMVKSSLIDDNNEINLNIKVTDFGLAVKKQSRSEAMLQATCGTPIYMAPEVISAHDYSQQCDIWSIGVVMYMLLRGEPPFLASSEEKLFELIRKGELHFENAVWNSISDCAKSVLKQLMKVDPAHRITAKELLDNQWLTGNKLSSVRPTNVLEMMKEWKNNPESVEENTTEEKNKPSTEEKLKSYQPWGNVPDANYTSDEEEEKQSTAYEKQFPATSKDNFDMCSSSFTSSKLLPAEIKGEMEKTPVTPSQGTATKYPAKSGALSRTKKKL

[16] = target: RAC-beta serine/threonine-protein kinase (Homo sapiens) (UniProt P31751); details: Compound concentration 1000.0 nM
[17] = target: Tyrosine-protein kinase receptor TYRO3 (Homo sapiens) (UniProt Q06418); details: Compound concentration 1000.0 nM
[18] = target: Serine/threonine-protein kinase Nek4 (Homo sapiens) (UniProt P51957); details: Compound concentration 1000.0 nM
[19] = target: Dual specificity mitogen-activated protein kinase kinase 3 (Homo sapiens) (UniProt P46734); details: Compound concentration 1000.0 nM
[20] = target: Serine/threonine-protein kinase LATS2 (Homo sapiens) (UniProt Q9NRM7); details: Compound concentration 1000.0 nM
[21] = target: cAMP-dependent protein kinase catalytic subunit PRKX (Homo sapiens) (UniProt P51817); details: Compound concentration 1000.0 nM
[22] = target: Ephrin type-A receptor 5 (Homo sapiens) (UniProt P54756); details: Compound concentration 1000.0 nM
[23] = target: Casein kinase I isoform gamma-2 (Homo sapiens) (UniProt P78368); details: Compound concentration 1000.0 nM
[24] = target: Dual specificity mitogen-activated protein kinase kinase 2 (Homo sapiens) (UniProt P36507); details: Compound concentration 1000.0 nM
[25] = target: Cyclin-dependent kinase 5 (Homo sapiens) (UniProt Q00535); details: Compound concentration 1000.0 nM
Chain of Cyclin-dependent kinase 5 (Homo sapiens) (Q00535 whole entry, looked up): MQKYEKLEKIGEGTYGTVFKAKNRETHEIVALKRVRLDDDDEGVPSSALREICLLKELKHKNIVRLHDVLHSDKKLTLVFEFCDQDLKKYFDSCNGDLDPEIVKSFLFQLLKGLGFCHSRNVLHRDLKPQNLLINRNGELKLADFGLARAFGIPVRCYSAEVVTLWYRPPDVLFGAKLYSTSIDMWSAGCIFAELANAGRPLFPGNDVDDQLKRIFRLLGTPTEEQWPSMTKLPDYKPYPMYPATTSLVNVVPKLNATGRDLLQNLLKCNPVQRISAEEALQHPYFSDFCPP

[26] = target: Serine/threonine-protein kinase DCLK1 (Homo sapiens) (UniProt O15075); details: Compound concentration 1000.0 nM
Chain of Serine/threonine-protein kinase DCLK1 (Homo sapiens) (O15075 whole entry): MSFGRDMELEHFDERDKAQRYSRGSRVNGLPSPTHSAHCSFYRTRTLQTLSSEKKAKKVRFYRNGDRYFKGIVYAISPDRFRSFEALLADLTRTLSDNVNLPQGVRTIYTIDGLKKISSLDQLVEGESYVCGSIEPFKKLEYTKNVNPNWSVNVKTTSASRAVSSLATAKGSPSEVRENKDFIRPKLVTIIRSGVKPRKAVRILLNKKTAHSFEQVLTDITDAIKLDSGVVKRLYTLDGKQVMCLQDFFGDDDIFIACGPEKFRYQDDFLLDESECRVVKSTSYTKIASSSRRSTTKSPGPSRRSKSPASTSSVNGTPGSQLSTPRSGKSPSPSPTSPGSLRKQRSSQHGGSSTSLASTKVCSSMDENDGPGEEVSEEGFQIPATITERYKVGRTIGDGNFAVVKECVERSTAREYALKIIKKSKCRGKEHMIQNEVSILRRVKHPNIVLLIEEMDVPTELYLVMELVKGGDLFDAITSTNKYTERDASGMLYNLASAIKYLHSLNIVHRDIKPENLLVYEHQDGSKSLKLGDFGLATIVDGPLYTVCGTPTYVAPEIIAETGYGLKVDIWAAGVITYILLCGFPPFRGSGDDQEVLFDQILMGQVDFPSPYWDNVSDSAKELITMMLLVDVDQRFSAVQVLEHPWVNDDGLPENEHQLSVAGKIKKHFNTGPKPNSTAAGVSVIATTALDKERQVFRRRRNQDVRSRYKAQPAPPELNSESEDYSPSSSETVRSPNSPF

[27] = target: Serine/threonine-protein kinase 38 (Homo sapiens) (UniProt Q15208); details: Compound concentration 1000.0 nM
[28] = target: Serine/threonine-protein kinase 24 (Homo sapiens) (UniProt Q9Y6E0); details: Compound concentration 1000.0 nM
[29] = target: Muscarinic acetylcholine receptor M5 (Homo sapiens) (UniProt P08912); details: Compound concentration 10.0 uM
Chain of Muscarinic acetylcholine receptor M5 (Homo sapiens) (P08912 whole entry): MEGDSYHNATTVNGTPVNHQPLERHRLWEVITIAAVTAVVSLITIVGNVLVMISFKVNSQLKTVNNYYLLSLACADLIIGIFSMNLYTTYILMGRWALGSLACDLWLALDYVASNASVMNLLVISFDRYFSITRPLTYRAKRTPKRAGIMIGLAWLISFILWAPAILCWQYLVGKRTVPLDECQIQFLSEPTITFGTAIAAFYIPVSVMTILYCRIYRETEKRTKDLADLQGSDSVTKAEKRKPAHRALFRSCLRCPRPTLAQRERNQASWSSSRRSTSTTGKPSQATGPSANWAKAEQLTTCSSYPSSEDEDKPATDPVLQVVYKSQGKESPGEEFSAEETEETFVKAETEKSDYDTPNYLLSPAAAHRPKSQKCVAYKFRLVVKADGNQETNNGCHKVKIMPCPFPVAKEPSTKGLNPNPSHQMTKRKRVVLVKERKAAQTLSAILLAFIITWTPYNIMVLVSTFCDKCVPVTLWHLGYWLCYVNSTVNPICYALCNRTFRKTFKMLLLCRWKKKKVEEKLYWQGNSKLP

[30] = target: Ephrin type-A receptor 4 (Homo sapiens) (UniProt P54764); details: Compound concentration 1000.0 nM
[31] = target: Ephrin type-A receptor 8 (Homo sapiens) (UniProt P29322); details: Compound concentration 1000.0 nM
[32] = target: Maternal embryonic leucine zipper kinase (Homo sapiens) (UniProt Q14680); details: Compound concentration 1000.0 nM
Chain of Maternal embryonic leucine zipper kinase (Homo sapiens) (Q14680 whole entry, looked up): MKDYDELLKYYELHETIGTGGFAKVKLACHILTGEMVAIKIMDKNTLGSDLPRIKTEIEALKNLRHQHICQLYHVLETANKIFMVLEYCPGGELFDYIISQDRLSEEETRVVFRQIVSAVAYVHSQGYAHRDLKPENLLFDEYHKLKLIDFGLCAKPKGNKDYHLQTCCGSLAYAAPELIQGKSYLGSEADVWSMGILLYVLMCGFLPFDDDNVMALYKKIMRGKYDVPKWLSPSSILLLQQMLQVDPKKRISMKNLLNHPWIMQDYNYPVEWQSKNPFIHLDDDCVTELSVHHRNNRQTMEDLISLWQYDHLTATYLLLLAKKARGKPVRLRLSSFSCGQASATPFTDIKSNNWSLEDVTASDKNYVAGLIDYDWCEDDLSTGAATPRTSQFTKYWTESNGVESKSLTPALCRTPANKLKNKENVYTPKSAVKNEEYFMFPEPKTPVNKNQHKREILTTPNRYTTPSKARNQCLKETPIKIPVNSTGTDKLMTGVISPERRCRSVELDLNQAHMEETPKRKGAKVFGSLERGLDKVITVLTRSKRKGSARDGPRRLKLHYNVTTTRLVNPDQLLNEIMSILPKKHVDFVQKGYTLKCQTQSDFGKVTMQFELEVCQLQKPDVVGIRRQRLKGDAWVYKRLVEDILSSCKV

[33] = target: Ephrin type-B receptor 4 (Homo sapiens) (UniProt P54760); details: Compound concentration 1000.0 nM
[34] = target: Tyrosine-protein kinase Fyn (Homo sapiens) (UniProt P06241); details: Compound concentration 1000.0 nM
Chain of Tyrosine-protein kinase Fyn (Homo sapiens) (P06241 2-537 limits assumed): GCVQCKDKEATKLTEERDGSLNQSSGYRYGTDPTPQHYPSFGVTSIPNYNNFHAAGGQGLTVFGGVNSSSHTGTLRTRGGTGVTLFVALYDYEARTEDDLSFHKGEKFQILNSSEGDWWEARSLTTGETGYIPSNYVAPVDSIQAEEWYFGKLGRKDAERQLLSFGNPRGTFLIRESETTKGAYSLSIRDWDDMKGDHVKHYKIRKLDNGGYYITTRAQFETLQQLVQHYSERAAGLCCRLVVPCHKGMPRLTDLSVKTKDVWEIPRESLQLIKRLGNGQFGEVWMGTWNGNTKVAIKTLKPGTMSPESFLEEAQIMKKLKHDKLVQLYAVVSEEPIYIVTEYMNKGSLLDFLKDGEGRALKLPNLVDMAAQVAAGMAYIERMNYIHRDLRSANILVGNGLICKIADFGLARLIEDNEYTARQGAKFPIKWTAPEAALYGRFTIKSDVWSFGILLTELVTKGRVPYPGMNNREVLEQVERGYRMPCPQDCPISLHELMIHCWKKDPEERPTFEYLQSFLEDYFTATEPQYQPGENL

[35] = target: Cyclin-dependent kinase 9 (Homo sapiens) (UniProt P50750); details: Compound concentration 1000.0 nM
[36] = target: Glycogen synthase kinase-3 beta (Homo sapiens) (UniProt P49841); details: Compound concentration 1000.0 nM
[37] = test system: Phosphatidylinositol 4,5-bisphosphate 3-kinase catalytic subunit alpha isoform (Homo sapiens), P42336 [Q546K]; details: Compound concentration 1000.0 nM
[38] = test system: Mast/stem cell growth factor receptor Kit (Homo sapiens), P10721 [V559D,V654A]; details: Compound concentration 1000.0 nM
[39] = target: Ribosomal protein S6 kinase alpha-3 (Homo sapiens) (UniProt P51812); details: Compound concentration 1000.0 nM
[40] = target: Serine/threonine-protein kinase/endoribonuclease IRE1 (Homo sapiens) (UniProt O75460); details: Compound concentration 1000.0 nM
[41] = target: Interferon-induced, double-stranded RNA-activated protein kinase (Homo sapiens) (UniProt P19525); details: Compound concentration 1000.0 nM
[42] = target: Serine/threonine-protein kinase PRP4 homolog (Homo sapiens) (UniProt Q13523); details: Compound concentration 1000.0 nM
Chain of Serine/threonine-protein kinase PRP4 homolog (Homo sapiens) (Q13523 whole entry): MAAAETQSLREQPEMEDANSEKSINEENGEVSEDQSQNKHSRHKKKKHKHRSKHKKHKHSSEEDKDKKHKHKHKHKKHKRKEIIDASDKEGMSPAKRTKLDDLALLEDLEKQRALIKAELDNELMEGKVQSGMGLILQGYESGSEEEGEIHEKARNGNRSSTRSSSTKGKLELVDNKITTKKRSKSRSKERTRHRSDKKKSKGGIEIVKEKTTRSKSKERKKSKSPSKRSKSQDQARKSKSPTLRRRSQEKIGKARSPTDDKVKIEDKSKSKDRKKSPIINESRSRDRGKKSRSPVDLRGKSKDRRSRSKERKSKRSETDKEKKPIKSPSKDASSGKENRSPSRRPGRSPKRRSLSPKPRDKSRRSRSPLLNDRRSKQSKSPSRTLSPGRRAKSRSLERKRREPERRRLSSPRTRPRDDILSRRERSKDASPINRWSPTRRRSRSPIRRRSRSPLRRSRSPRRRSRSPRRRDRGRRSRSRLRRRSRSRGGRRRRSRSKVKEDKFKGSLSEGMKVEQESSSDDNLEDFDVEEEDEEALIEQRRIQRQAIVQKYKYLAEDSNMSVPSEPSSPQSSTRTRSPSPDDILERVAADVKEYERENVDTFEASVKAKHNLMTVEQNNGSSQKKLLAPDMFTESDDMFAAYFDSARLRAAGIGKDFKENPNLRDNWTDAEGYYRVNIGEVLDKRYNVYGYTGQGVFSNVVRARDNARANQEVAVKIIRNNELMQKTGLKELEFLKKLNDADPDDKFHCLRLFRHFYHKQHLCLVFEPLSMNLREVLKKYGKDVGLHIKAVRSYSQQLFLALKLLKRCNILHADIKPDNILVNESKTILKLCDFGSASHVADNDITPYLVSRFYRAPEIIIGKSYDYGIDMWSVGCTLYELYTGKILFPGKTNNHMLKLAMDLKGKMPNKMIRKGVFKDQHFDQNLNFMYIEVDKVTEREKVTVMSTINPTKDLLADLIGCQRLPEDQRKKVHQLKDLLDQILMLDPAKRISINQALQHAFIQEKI

[43] = target: GABA-A receptor; anion channel (Rattus norvegicus) (UniProt O09028+P15431+P18506+P18508+P19969+P20236+P23574+P23576+P28471+P28473+P30191+P62813+P63079+P63138+Q91ZM7+Q9ES14); details: Compound concentration 10.0 uM

CN([C@@H]1CCc2c(CC(=O)O)c3cc(S(C)(=O)=O)ccc3n2C1)S(=O)(=O)c1ccc(F)cc1
inactive: residual activity [1] 74% | residual activity [2] 100% | residual activity [3] 80% | residual activity [4] 100% | residual activity [5] 99% | inhibition [6] -5.72% | residual activity [7] 100% | residual activity [8] 88% | residual activity [9] 100% | residual activity [10] 100% | residual activity [11] 100% | residual activity [12] 100% | residual activity [13] 87% | inhibition [14] -6.18% | residual activity [15] 99% | residual activity [16] 92% | residual activity [17] 91% | residual activity [18] 91% | residual activity [19] 88% | residual activity [20] 88% | residual activity [21] 100% | residual activity [22] 78% | residual activity [23] 100% | residual activity [24] 95% | residual activity [25] 86% | residual activity [26] 79% | residual activity [27] 85% | residual activity [28] 100% | inhibition [29] -6.18% | residual activity [30] 93% | residual activity [31] 98% | residual activity [32] 84% | residual activity [33] 95% | residual activity [34] 99% | residual activity [35] 100% | residual activity [36] 85% | residual activity [37] 100% | residual activity [38] 100% | residual activity [39] 81% | residual activity [40] 100% | residual activity [41] 100% | residual activity [42] 100% | inhibition [43] 45%

CN([C@@H]1CCc2c(CC(=O)O)c3ccccc3n2C1)S(=O)(=O)c1ccc(F)cc1 [MK-7246]
inactive: residual activity [1] 85% | residual activity [2] 100% | residual activity [3] 78% | residual activity [4] 100% | residual activity [5] 94% | inhibition [6] -4.25% | residual activity [7] 100% | residual activity [8] 100% | residual activity [9] 100% | residual activity [10] 100% | residual activity [11] 100% | residual activity [12] 100% | residual activity [13] 100% | inhibition [14] -2.68% | residual activity [15] 100% | residual activity [16] 95% | residual activity [17] 72% | residual activity [18] 100% | residual activity [19] 84% | residual activity [20] 100% | residual activity [21] 100% | residual activity [22] 99% | residual activity [23] 100% | residual activity [24] 76% | residual activity [25] 100% | residual activity [26] 82% | residual activity [27] 100% | residual activity [28] 100% | inhibition [29] 6.97% | residual activity [30] 87% | residual activity [31] 100% | residual activity [32] 93% | residual activity [33] 95% | residual activity [34] 77% | residual activity [35] 100% | residual activity [36] 93% | residual activity [37] 100% | residual activity [38] 100% | residual activity [39] 86% | residual activity [40] 94% | residual activity [41] 100% | residual activity [42] 99% | inhibition [43] 27.7%
